In publication PMC11513924, “Addressing the Intracellular Vestibule of the Plasmodial Lactate Transporter PfFNT by p-Substituted Inhibitors Amplifies In Vitro Activity” (Journal of Medicinal Chemistry, 2024):

Columns and labels:
[1] = system: P. falciparum 3D7; experiment: P. falciparum 3D7 SCID mouse model, in vivo efficacy; set-up: species or system Plasmodium falciparum (SCID mice); conditions: oral 150 mg kg^–1 day^–1, four consecutive days, one animal
Procedure: The animal experiments against P. berghei were carried out at the Swiss Tropical and Public Health Institute adhering to local and national regulations of laboratory animal welfare in Switzerland (awarded permission no. BL530). Protocols are regularly reviewed and revised following approval by the local authority (Amt für Lebensmittelsicherheit and Veterinärwesen Basel-Land). Female mice infected with GFP-expressing P. berghei (ANKA strain, donated by A. P. Waters and C. J. Janse, Leiden University, The Netherlands) were analyzed for in vivo efficacy of 7e and 8a as described previously.[18],[19] Parasitemia was determined using flow cytometry with a detection limit of 1 parasite in 1000 erythrocytes. Compound activity was calculated as the difference between the mean parasitemia for the control and treated groups (n = 3, each) expressed relative to the control group. 7e and 8a were suspended in 70/30 Tween 80/ethanol, diluted 10-fold with water and administered orally 4, 24, 48, and 72 h after infection. 7e was analyzed at 30, 10, and 3 mg kg^–1, 8a at 50, and 10 mg kg^–1. In vivo efficacy against P. falciparum was conducted at The Art of Discovery, TAD, Bizkaia, Spain, according to the previously described standard assay.[16],[17]

[2] = Lipophilicity log D7.4 by HPLC (OECD guideline); assay type: physicochemical; conditions: RP-8 HPLC column (ZORBAX Eclipse XDB-C8), pH 7.4
Procedure: Lipophilicity was determined according to the OECD Guidelines for the Testing of Chemicals no. […]. Briefly, the test compounds plus 9 standards (4-acetylpyridine, acetanilide, acetophenone, methyl benzoate, ethyl benzoate, benzophenone, phenyl benzoate, diphenyl ether, triphenylamine) were separated by HPLC with UV detection at 220 nm (Waters HPLC 1525 with tunable absorbance detector 486) using an RP-8 column (Agilent Technologies ZORBAX Eclipse XDB-C8 4.6 × 150 mm, 5 μm) at 20 °C. Eluents A (20 mM ammonium formate, pH 7.4) and B (methanol) were used to generate a gradient profile of 80% A–100% B (0–35 min), 100% B (35–37 min), 100% B–80% A (37–42 min), and 80% A (42–55 min) at a flow rate of 0.8 mL min^–1. The dead time was determined via the injection peak caused by the solvent. The log D7.4 values were calculated by correlating the capacity factors with the known values of the standards via polynomial fitting.

[3] = Blood levels of compound in the SCID mouse model; assay type: in vivo

Structure (SMILES)	effect on parasite load [1]	chromatographic logD [2]	blood concentration (peak) ([3]; oral 4 × 50 mg kg^–1) [μg mL^–1]	half-life ([3]; whole blood, oral 4 × 50 mg kg^–1, read-out: half-life from modeled blood profile) [h]
CCCNc1ccc(C(=O)/C=C(\O)C(F)(F)C(F)(F)F)cn1 [7e, 4,4,5,5,5-Pentafluoro-3-hydroxy-1-(6-(propylamino)pyridin-3-yl)pent-2-en-1-one]	decreased the parasite load below the starting parasitemia	3.18	~2	2 to 4
CC(=O)Nc1ccc(C(=O)/C=C(\O)C(F)(F)C(F)(F)F)cn1 [8a, N-[5-(4,4,5,5,5-Pentafluoro-3-hydroxypent-2-enoyl)pyridin-2-yl]acetamide]		1.7		
